US7125849B2, “Peptide-based angiogenesis inhibitors and methods of use thereof” (The Scripps Research Institute, priority 2003, dated 2006)
No end group written: not given here.

How the values were obtained:
endothelial cells = assay: Contractility on flexible silicone rubber substrates (wrinkle assay); format: cell-based; conditions: about 10 μM, FIG. 4
From the text: Contractility. To visualize cell contractility, flexible rubber substrates were generated as described by Bussolino et al., J. Biol. Chem., 1989, 264:18284–18287. Briefly, silicone rubber (polydimethylsiloxane), having a viscosity of about 10000 centistokes (Dow Corning Co.) was applied to the coverslip at the bottom of 35 mm tissue culture dishes and coated with a thin layer of gold-palladium using a Hummer VI sputter coater, which polymerized a thin layer of silicon rubber. The surface was additionally coated with about 2 μg/ml of fibronectin (FN). Treated and un-treated endothelial cells were plated on the rubber substrate and allowed to adhere. Cells that had wrinkled the substrate beneath were visualized for about 4 hours and then scored by time-lapse phase contrast microscopy. Following this period, the cells were treated with Cytochalasin D (about 1 μg/ml) (Molecular Probes) to release all wrinkles that were due to actin-dependent cell tension.
To examine effects on contractility, cells were plated on elastic substrata, as described above, that can be pulled into wrinkles by cell-generated forces.

HMEC-1 cells = assay: Endothelial cell migration by time lapse imaging
Procedure: Microscopy. To assay migration, HMEC-1 cells were treated with various concentrations of either PRO polypeptide or mutant peptide prior to plating. Cells were plated on coverslips coated with about 2 μg/ml of fibronectin (FN). Dishes containing coverslips were prepared as described by Kiosses et al., and maintained at a temperature of about 37° C., under an atmosphere containing about 5% carbon dioxide as described by Schwartz, J. Cell Biol., 1993, 120:1003–1010. The cells were viewed with a Nikon DiaPhot Microscope equipped with a SenSys cooled CCD video camera linked to a Silicon Graphics workstation running the Inovision ISEE software program. At the end of the experiment, images of each cell were outlined and the centroid (cell center) calculated. Displacement of the centroid was then used to determine movement of the cell over time. Statistical analysis was performed using Microsoft EXCEL statistics software. Approximately 50 cells were filmed and tracked per experiment, with at least 3 independent experiments for both the PRO and the mutant peptide. Results were expressed as means±standard error of the mean. The Students t-test was used to determine whether the observed differences were statistically significant (p=0.05).

[1] = system: chorioallantoic membrane (CAM) of chick embryos; assay: Chick CAM in vivo angiogenesis assay (bFGF-induced); conditions: bFGF filters, examined 3 days later, compared to untreated filters, FIG. 6
Procedure: Chick Cam Assays. In vivo angiogenesis assays were performed essentially as previously described by Brooks, et al., Cell, 1994, 79:1157–1164, the relevant disclosures of which are incorporated herein by reference. Filter discs saturated with 1.0 ug/ml bFGF were placed on the chorioallantoic membranes (CAMs) of 10-day-old chicken embryos, immediately followed by daily topical addition of either a PRO inhibitory peptide (20 μgs) or a control peptide ([…]) in 20 μl of fibroblast growth medium (FGM). After 72 hours, the filter discs and associated CAM tissue were harvested and quantified. Angiogenesis was assessed as the number of visible blood vessel branch points within the defined area of the filter discs. At least 20 CAMs were used for each treatment.
New blood vessels invade the filter dishes within 2–5 days, and angiogenesis can be readily detected. Filters without any additions, with control or with the PRO compound of Example 1 were implanted and examined 3 days later.

Nck = molecular target: T1, Nck (Homo sapiens, UniProt P16333); assay: Affinity chromatography of endothelial cell extracts on peptide-agarose, western blot with anti-Nck; format: binding; conditions: detergent extracts of human endothelial cells
T1 construct: endogenous in cells; host or cells: human endothelial cells (cell type for this assay not further specified)
Procedure: Affinity Chromatography. PRO or control peptides containing an N-terminal cysteine were dissolved in about 1 ml of coupling buffer (50 mM tris pH 8.0, 5 mM EDTA) and about 0.5 ml at about 3 mg/ml peptide added to about 2 ml of activated thiol-Sepharose (Pharmacia). Samples were incubated at a temperature of about 4° C. overnight with 1% β-mercaptoethanol added to block unreacted sites. Beads were rinsed and stored at a temperature of about 4° C. Endothelial cell cultures in 15 cm dishes were extracted in about 1.0 ml of cold (about 4° C.), lysis buffer (20 mM pH 7.4 sodium phosphate, 100 mM NaCl, 1% Triton X-100, 10 mM NaF, 2 mM EDTA, 1 mM sodium orthovanadate, 1 mM PMSF, 10 μg/ml each of leupeptin and aprotinin). The extracts were centrifuged for about 10 minutes at top speed in a microfuge and the supernatants were then removed. A 0.5 ml sample of each extract was incubated with about 10 μl of packed beads for about 1 hour, with rotation at a temperature of about 4° C. The beads were rinsed with lysis buffer (about 4×0.5 ml) and dissolved in SDS sample buffer (about 0.04 ml). Samples were analyzed by SDS PAGE on 10% gels and immunoblotting with anti-NCK (Santa Cruz) and HRP-protein A as secondary, and then were developed and detected using enhanced chemiluminescence (ECL kit, Amersham). […]

[2] = system: Human umbilical vein endothelial cells (HUVECs); assay: In vitro tube formation assay in 3-dimensional matrix; format: cell-based; conditions: about 48 hours
From the text: Formation of Three-dimensional Collagen Gels. Collagen gels were formed by mixing ice-cold gelation solution (10× M199, H2O, 0.53 mol/L NaHCO3, 200 mmol/L L-glutamine, type I collagen, 0.1 mol/L NaOH; 100:27.7:50:10:750:62.5 by volume) with cells in 1×-basal medium at a concentration of about 3×10^6 cells/ml at a ratio of about 4 volumes of gelation solution to about 1 volume of cells by the method of Yang et al. Am. J. Pathol., 1999, 155:[…] (hereinafter “Yang et al.”). The gels were allowed to form by incubation in a CO2-free incubator at a temperature of about 37° C. for about 30–60 minutes. […]
Quantification of Tube Formation. […] The total length of each tube or the long axis of single cells or groups of adjacent cells was measured, and the raw data was imported into a Microsoft Excel spread sheet. The mean tube length was determined for each well, followed by determination of the mean data and SEM for each experimental group.
As an initial test of the PRO effect on endothelial cell behavior in 3-dimensional matrices, in vitro tube formation assays in matrigel were carried out. […] Tube formation was quantitated by determining the length of endothelial cell tubes.

| Binding of Nck from endothelial cell lysates (Nck) | Substance | Cell contractility (wrinkles of elastic substratum) (endothelial cells) | Endothelial cell migration rate (HMEC-1 cells; about 10 μM peptide, time lapse imaging, FIG. 3A) | Angiogenesis in CAM (vascular branch points) [1] | Migration rates over the time course (argues against toxicity) (HMEC-1 cells; FIG. 3B) | Cell number [2] | Morphology of individual cells [2] |
| --- | --- | --- | --- | --- | --- | --- | --- |
| no detectable Nck was bound | SEQ ID NO: 5: control peptide in which the first two prolines of SEQ ID NO: 4 were replaced by the amino acids A and G (YGRKKRRQRRRGKAGAPPMRNTSTM; fusion protein fragment) | had no effect | no significant effect on migration | essentially no effect | – | – | – |
| – | YGRKKRRQRRRGKPPAPPMRNTSTM [SEQ ID NO: 4] | – | – | – | essentially constant | nor was cell number greatly altered | not noticeably perturbed |
